Experimental data reported in patent publication US10836792B2, “Retro-inverso peptide inhibitors of cell migration, extracellular matrix and endothelial invasion by tumor cells” (ISTITUTO NAZIONALE TUMORI IRCCS “FONDAZIONE G. PASCALE”, priority 2016, dated 2020).

What was measured:
[1] = system: HT1080 cells; test: FBS-directed migration of HT1080 cells in Boyden chambers; type: cell-based, human; conditions: 10 nM peptide, 10% FBS, 4 hrs
Description: FIG. 4 Retro-inverso peptides inhibit FBS-directed migration of HT1080 cells in a dose dependent manner (Example 4).
To assess whether retro-inverso peptides exert some effect on directional cell migration, HT1080 cells were allowed to migrate for 4 hrs in Boyden chambers toward serum-free medium (CTRL), 10% FBS (None) or 10% FBS mixed with peptides, each tested at 10 nM concentration. For quantitative analysis, the basal values assessed in the absence of FBS (CTRL) was taken as 100% and all values were reported relative to that. Data are the means±SD of two independent experiments, performed in triplicate. Statistical significance calculated against None with *p<0.01, **p<0.001 (A). All retro-inverso peptides caused a reduction of FBS-directed cell migration although to different extent. Peptides RI-1, RI-2, RI-3, RI-4 and RI-5 reduced by 49%, 46%, 65%, 9% and 6%, respectively, the extent of FBS-directed cell migration. Similar results were obtained when, HT1080 cell migration was monitored in real time for 18 hrs at 37° C., 5% CO2 by the xCELLigence system. Data represent mean±SD from a quadruplicate experiment representative of 2 replicates (B). Then, HT1080 cells were allowed to migrate in Boyden chambers toward 10% FBS plus increasing concentrations of RI-3, and data were expressed as a percentage of cells migrated toward FBS alone (100%) Inhibitory effect of RI-3 is dose-dependent, it starts in the high fM range, it seems to level off in the nM range and reaches an overall 50% reduction at 1×10^−13M (C).

[2] = system: HT1080 cells; test: FBS-directed matrigel invasion of HT1080 cells (xCELLigence RTCA); type: cell-based, human; conditions: 10 nM peptide, growth medium, 20 hrs
From the text: FIG. 5 Peptides RI-1, RI-2, RI-3, RI-4 and RI-5 reduced by 33%, 35%, 81%, 52% and 11%, respectively, the extent of FBS-directed matrigel invasion of HT1080 cells (A), as assessed in real time using the xCELLigence RTCA technology. The inhibitory effect of RI-3 is dose-dependent (B) (Example 5).
Cell migration is a prerequisite for cancer invasion. Therefore, we investigated whether retro-inverso peptides prevent matrigel invasion of HT1080 cells using the xCELLigence RTCA technology. Cells were seeded on polymerized matrigel and lower chambers were filled with DMEM (CTRL), growth medium (None) or growth medium with 10 nM the indicated peptides (A), or with increasing concentrations of RI-3 (B). Matrigel invasion was monitored in real time for 20 (A) or 18 (B) hrs at 37° C., 5% CO2 and the impedance values were automatically monitored as changes in cell index. Data represent means±SD from quadruplicate experiments, each representative of 2 replicates. HT1080 cells were able to cross matrigel in the presence of 10% FBS. All retro-inverso peptides caused a reduction of FBS-directed cell migration although to different extent.

[3] = system: sarcoma cell; conditions: mouse model of lung colonization; cited from earlier work
[4] = system: human fibrosarcoma HT1080 cells; test: Migration of HT1080 cells toward the peptides as chemoattractant (xCELLigence RTCA); type: cell-based; conditions: 10 nM peptide as chemoattractant, 18 hrs, cell index
From the text: Cell index due to the adhesion of migrating cells to microelectrodes are reported in (A); analysis of slopes representing the change rate of cell index generated in the time range 0-12 hr are reported in (B).
We assessed whether new generated retro-inverso peptides elicit themselves cell migration of human fibrosarcoma HT1080 cells. […] The results are depicted in FIG. 2. Data represent mean±SD from a quadruplicate experiment representative of 2 replicates (A).

Substance	reduction of the extent of FBS-directed cell migration [1] [%]	reduction of the extent of FBS-directed cell invasion (matrigel) [2] [%]	inhibition of sarcoma cell invasion [3]	cell migration triggered by the peptide [4]
3-phenylpropionyl-D-Arg-Aib-D-Arg-NH2 [RI-5]	6	11		
Ac-(D)-Tyr-(D)-Arg-(D)-Glu-(D)-Arg-NH2 [RI-1]	49	33		
Ac-(D)-Tyr-(D)-Arg-(D)-Ser-(D)-Arg-NH2 [RI-2]	46	35		
Ac-L-Arg-Aib-L-Arg-D-Cα(Me)Phe-NH2 [UPARANT]			does not inhibit sarcoma cell invasion	
N-formyl-methionyl-leucyl-phenylalanine peptide [fMLF]				elicited a considerable cell migration
Phenylacetyl-D-Arg-Aib-D-Arg-NH2 [RI-4]	9	52		
